Drawing on ChEMBL document CHEMBL1142160, “Overexpression and initial characterization of the chromosomal aminoglycoside 3'-O-phosphotransferase APH(3')-IIb from Pseudomonas aeruginosa” (2007), this text covers MIC for one sequence.

Type in all cases: functional
The test system of assay [1] is Escherichia coli. Kind of assay: Antibacterial activity against Escherichia coli BL21(DE3).
For assay [2], the system named is Pseudomonas aeruginosa. Kind of assay: Antibacterial activity against Pseudomonas aeruginosa ATCC 27853.
The subject of assay [3] is Escherichia coli. Description: Antibacterial activity against Escherichia coli BL21(DE3) expressing Pseudomonas aeruginosa APH(3')-2b.

The term MIC denotes the smallest concentration in the dilution series that meets the test's criterion for growth inhibition. A higher MIC goes with weaker potency. For the sequence GENTAMICIN, the MIC in assay [1] worked out at 6 µg/mL; in assay [2] it was 2 µg/mL; in assay [3], 6 µg/mL.
